Experimental data reported in article PMC8213057, “Targeting ALK2: An Open Science Approach to Developing Therapeutics for the Treatment of Diffuse Intrinsic Pontine Glioma” (Journal of Medicinal Chemistry, 2020).

Key:
[1] = molecular target: CLK1 (Homo sapiens, UniProt P49759); conditions: 1 μM; Run 1, Run 2
[2] = molecular target: CDK1/cyclin B (Homo sapiens, UniProt P06493); conditions: 1 μM; Run 1, Run 2
[3] = molecular target: T1, PHKg2 (Homo sapiens, UniProt P15735); assay: biochemical; conditions: read-out: % enzyme activity, 1 μM; Run 1, Run 2
T1 sequence (P15735 1-406): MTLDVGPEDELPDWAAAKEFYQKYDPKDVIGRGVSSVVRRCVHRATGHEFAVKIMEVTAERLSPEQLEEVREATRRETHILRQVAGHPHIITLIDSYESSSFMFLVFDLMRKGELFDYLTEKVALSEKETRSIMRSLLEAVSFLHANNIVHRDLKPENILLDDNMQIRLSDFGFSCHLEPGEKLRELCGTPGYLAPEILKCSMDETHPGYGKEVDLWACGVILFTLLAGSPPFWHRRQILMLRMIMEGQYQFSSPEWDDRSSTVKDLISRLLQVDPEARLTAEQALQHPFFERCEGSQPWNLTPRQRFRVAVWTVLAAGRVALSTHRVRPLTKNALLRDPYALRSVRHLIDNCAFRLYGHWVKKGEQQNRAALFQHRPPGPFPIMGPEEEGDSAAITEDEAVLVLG

[4] = molecular target: DMPK2 (Homo sapiens, UniProt Q6DT37); assay: biochemical; conditions: read-out: % enzyme activity, 1 μM; Run 1, Run 2
[5] = molecular target: PKCb1 (Homo sapiens, UniProt P05771); conditions: 1 μM; Run 1, Run 2
PKCb1, sequence (P05771 whole entry): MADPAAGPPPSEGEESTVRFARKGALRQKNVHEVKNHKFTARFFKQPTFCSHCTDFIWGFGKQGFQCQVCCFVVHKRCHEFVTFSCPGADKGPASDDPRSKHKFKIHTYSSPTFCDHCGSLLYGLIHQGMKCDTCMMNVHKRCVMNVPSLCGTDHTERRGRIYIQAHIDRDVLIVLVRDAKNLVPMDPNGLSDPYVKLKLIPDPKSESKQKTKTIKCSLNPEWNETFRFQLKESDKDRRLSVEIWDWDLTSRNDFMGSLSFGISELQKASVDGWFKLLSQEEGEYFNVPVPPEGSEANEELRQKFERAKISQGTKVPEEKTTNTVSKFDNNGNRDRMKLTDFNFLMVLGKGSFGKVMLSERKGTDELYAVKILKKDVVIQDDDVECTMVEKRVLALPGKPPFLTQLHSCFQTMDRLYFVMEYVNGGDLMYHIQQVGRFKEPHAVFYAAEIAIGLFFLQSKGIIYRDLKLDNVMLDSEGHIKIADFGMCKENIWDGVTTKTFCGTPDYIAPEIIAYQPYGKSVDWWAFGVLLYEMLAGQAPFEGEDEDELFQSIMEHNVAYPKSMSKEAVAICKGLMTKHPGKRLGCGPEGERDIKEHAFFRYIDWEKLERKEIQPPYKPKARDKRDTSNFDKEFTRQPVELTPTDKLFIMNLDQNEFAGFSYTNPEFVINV

[6] = molecular target: CAMK1a (Homo sapiens, UniProt Q14012); conditions: 1 μM; Run 1, Run 2
[7] = molecular target: T2, SIK3 (Homo sapiens, UniProt Q9Y2K2); assay: biochemical; conditions: read-out: % enzyme activity, 1 μM; Run 1, Run 2
T2 sequence (Q9Y2K2 whole entry): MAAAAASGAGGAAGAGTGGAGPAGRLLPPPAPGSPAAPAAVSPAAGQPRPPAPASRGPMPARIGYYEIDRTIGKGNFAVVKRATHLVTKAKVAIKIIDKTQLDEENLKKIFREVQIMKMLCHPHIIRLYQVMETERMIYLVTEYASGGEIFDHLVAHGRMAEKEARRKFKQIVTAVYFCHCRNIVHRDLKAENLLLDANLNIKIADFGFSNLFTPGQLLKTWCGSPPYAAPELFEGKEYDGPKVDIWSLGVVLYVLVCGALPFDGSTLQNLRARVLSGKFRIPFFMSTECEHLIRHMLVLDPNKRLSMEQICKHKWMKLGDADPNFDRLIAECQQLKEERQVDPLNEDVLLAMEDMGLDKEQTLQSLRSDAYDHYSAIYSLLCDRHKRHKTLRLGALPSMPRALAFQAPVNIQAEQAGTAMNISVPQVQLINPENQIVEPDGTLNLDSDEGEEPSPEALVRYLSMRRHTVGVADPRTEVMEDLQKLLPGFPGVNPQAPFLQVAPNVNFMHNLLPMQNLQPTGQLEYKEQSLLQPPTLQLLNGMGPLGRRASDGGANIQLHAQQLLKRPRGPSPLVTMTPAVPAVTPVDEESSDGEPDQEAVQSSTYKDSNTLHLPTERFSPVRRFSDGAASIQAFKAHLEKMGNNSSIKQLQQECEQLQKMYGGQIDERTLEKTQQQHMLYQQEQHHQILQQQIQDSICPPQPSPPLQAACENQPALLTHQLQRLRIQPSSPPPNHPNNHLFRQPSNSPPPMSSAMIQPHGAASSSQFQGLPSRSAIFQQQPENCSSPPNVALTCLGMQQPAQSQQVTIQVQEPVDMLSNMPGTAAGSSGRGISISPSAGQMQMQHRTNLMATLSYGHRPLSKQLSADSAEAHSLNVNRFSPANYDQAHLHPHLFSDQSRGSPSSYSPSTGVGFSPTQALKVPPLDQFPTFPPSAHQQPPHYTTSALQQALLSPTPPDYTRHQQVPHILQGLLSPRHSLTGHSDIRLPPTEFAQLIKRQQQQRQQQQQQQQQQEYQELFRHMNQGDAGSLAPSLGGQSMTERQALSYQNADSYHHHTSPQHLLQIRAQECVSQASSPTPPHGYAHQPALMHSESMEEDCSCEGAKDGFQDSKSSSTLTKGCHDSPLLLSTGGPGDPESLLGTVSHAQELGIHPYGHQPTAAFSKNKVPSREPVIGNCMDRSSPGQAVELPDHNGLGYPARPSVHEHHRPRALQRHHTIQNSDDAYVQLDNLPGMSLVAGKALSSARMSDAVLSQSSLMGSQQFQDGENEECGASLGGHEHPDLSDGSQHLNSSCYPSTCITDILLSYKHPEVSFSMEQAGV

[8] = molecular target: RSK1 (Homo sapiens, UniProt Q15418); assay: biochemical; conditions: read-out: % enzyme activity, 1 μM; Run 1, Run 2
[9] = molecular target: T2, SIK3; conditions: 1 μM; Run 1, Run 2
[10] = molecular target: ERBB2/HER2 (Homo sapiens, UniProt P04626); assay: biochemical; conditions: read-out: % enzyme activity, 1 μM; Run 1, Run 2
ERBB2/HER2, sequence (P04626 23-1255): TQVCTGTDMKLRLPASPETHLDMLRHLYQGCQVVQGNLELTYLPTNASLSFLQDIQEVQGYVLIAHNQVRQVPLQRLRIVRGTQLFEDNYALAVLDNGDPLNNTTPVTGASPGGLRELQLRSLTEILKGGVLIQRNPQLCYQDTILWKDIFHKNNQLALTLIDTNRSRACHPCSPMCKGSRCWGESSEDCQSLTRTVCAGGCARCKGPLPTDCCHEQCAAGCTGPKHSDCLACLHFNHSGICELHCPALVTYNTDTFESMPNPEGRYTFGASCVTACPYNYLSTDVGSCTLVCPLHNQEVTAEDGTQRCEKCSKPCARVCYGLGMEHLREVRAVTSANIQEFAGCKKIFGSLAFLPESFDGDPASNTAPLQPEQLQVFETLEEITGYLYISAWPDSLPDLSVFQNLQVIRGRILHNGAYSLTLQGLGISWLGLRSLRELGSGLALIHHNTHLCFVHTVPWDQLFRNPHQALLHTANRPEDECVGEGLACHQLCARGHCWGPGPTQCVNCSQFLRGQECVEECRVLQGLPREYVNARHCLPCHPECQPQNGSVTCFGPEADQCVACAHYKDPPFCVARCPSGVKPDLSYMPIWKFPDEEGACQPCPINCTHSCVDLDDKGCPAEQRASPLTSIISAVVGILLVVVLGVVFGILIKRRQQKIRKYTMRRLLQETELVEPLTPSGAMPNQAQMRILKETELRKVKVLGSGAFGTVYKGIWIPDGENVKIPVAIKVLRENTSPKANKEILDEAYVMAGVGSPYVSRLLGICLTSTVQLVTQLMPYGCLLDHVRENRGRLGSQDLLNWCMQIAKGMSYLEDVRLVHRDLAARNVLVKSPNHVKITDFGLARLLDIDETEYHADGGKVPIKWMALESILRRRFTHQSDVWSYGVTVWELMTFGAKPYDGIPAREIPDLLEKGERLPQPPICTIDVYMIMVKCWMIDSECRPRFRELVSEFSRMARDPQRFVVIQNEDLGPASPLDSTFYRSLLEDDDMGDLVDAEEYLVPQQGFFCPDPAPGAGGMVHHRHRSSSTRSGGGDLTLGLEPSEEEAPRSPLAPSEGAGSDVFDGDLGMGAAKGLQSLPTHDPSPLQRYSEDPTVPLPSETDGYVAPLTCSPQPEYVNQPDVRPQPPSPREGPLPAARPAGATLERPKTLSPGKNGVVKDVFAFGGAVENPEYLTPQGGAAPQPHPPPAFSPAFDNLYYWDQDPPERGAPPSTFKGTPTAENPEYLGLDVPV

[11] = molecular target: PAK6 (Homo sapiens, UniProt Q9NQU5); assay: biochemical; conditions: read-out: % enzyme activity, 1 μM; Run 1, Run 2
[12] = molecular target: T3, NEK5 (Homo sapiens, UniProt Q6P3R8); conditions: 1 μM; Run 1, Run 2
T3 sequence (Q6P3R8 1-708): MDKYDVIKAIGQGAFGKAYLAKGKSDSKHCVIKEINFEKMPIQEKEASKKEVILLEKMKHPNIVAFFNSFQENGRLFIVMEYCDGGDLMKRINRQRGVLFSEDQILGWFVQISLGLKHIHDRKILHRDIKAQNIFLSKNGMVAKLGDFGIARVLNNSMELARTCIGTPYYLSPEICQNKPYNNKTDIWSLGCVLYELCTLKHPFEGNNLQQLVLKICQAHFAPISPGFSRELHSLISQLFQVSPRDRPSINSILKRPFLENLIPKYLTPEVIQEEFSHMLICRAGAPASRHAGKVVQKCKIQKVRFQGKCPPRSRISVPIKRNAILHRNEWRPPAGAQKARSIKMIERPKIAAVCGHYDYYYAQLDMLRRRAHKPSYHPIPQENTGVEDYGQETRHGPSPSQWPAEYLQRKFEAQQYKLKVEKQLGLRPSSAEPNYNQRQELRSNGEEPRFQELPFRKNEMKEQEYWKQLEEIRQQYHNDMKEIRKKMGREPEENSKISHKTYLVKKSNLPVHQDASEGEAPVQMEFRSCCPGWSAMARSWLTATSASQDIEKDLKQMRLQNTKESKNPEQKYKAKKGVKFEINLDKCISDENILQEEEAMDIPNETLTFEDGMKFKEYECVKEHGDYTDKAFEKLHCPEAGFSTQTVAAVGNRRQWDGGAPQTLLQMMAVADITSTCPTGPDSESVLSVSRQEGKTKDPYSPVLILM

[13] = molecular target: CDK9/cyclin T2 (Homo sapiens, UniProt P50750); assay: biochemical; conditions: read-out: % enzyme activity, 1 μM; Run 1, Run 2
CDK9/cyclin T2, sequence (P50750 whole entry): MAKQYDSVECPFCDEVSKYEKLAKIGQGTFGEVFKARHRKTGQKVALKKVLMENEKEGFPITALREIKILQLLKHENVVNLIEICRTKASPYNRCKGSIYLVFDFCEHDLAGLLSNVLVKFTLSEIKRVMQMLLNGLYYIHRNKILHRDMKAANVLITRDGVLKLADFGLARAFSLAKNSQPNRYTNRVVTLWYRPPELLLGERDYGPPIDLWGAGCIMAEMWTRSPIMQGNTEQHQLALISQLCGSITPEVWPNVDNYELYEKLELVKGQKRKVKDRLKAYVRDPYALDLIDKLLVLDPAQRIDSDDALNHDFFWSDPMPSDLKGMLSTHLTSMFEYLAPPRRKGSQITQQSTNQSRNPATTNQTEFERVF
CDK9/cyclin T2, sequence (O60583 whole entry partner): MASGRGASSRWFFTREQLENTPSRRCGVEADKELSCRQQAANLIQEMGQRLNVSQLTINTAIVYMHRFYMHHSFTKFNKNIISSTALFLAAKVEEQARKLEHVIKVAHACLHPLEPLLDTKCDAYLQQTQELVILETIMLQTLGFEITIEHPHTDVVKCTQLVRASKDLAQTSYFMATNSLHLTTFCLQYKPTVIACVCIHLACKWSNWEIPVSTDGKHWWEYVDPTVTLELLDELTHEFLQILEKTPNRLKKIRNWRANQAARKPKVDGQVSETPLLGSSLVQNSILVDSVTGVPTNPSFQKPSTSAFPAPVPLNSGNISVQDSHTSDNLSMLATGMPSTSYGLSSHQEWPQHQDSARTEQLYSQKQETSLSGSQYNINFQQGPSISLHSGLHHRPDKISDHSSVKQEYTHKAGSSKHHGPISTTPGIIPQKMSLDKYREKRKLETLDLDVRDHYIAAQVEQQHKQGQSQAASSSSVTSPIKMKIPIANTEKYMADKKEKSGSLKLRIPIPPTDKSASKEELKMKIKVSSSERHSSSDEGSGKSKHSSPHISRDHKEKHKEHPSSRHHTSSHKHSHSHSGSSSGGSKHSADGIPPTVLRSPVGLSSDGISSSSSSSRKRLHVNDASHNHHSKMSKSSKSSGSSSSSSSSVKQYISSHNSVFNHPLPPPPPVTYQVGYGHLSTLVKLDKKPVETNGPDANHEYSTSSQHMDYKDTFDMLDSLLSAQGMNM

[14] = molecular target: NEK7 (Homo sapiens, UniProt Q8TDX7); conditions: 1 μM; Run 1, Run 2
[15] = molecular target: NIM1 (Homo sapiens, UniProt Q8IY84); conditions: 1 μM; Run 1, Run 2
[16] = molecular target: T4, RIPK5 (Homo sapiens, UniProt Q6XUX3); assay: biochemical; conditions: read-out: % enzyme activity, 1 μM; Run 1, Run 2
T4 sequence (Q6XUX3 1-929): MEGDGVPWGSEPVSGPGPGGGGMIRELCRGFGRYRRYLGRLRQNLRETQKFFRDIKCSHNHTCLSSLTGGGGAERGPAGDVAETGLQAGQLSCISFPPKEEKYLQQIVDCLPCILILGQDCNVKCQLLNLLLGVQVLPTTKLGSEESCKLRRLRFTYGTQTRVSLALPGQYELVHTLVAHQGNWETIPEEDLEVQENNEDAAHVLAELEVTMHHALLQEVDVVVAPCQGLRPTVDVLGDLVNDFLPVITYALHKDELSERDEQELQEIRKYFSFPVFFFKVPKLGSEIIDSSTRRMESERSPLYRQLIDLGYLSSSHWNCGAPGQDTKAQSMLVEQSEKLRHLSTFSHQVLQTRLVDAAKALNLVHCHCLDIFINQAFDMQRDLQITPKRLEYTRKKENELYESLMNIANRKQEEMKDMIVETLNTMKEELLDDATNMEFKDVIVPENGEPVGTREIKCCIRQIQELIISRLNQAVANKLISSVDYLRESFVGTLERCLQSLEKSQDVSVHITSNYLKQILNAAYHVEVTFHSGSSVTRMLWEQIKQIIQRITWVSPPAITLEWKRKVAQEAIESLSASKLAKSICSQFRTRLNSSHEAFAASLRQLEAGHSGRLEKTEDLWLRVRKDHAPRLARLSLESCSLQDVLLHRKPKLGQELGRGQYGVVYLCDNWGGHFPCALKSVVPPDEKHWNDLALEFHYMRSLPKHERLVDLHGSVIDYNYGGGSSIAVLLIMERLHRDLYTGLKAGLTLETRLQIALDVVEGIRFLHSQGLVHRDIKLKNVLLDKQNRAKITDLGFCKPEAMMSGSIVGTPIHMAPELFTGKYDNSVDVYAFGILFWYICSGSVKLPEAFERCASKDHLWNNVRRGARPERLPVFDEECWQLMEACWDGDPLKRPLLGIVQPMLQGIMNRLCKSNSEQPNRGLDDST

CLK1, sequence (P49759 whole entry): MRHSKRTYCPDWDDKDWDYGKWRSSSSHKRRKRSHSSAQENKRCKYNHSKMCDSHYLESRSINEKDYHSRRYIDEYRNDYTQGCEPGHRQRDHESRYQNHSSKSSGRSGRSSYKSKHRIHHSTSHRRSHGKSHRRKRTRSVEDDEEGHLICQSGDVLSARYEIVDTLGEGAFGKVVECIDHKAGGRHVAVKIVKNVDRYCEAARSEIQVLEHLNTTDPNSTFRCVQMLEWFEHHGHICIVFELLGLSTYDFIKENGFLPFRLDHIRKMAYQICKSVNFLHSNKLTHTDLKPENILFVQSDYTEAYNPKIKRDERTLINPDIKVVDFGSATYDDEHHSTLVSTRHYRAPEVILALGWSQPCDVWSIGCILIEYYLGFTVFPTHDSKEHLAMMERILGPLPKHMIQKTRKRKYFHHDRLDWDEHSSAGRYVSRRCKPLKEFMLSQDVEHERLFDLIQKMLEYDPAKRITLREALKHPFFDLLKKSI

COc1cc(-c2cncc(-c3ccc(N4CCN(C)CC4)cc3)c2C)cc(F)c1C(N)=O [Compound 26a, 2-Fluoro-6-methoxy-4-(4-methyl-5-(4-(4-methylpiperazin-1-yl)phenyl)pyridin-3-yl)benzamide] was tested, and the “% enzyme activity” value [1] was 94.42%, the “% enzyme activity” value [2] was 92.35% and the remaining activity at 1 µM [3] was 94.9%. The remaining activity at 1 µM [4] was 83.8%, the “% enzyme activity” value [5] was 82.63% and the “% enzyme activity” value [6] was 92.25%. For the same molecule, the remaining activity at 1 µM [7] was 59.5%, the remaining activity at 1 µM [8] was 98.9% and the “% enzyme activity” value [9] was 58.19%. The remaining activity at 1 µM [10] was 89.7%, the remaining activity at 1 µM [11] was 102% and the “% enzyme activity” value [12] was 97.51%. For the same molecule, the remaining activity at 1 µM [13] was 100%, the “% enzyme activity” value [14] was 96.68% and the “% enzyme activity” value [15] was 95.18%. The remaining activity at 1 µM [16] was 83.1%.

In the case of COc1cc(-c2cncc(-c3ccc(N4C[C@@H](C)N(C)[C@@H](C)C4)cc3)c2C)cc(F)c1C(N)=O [Compound 26c, 2-Fluoro-6-methoxy-4-(4-methyl-5-(4-((3R,5S)-3,4,5-trimethylpiperazin-1-yl)phenyl)pyridin-3-yl)benzamide], the “% enzyme activity” value [1] is reported as 86.91%, the “% enzyme activity” value [2] is reported as 91.98% and the remaining activity at 1 µM [3] is reported as 96.7%. The remaining activity at 1 µM [4] was 87.5%, the “% enzyme activity” value [5] was 83.58% and the “% enzyme activity” value [6] was 96.82%. The remaining activity at 1 µM [7] was 89%, the remaining activity at 1 µM [8] was 102% and the “% enzyme activity” value [9] was 82.93%. The remaining activity at 1 µM [10] was 96.8%, the remaining activity at 1 µM [11] was 96.3% and the “% enzyme activity” value [12] was 93.10%. The remaining activity at 1 µM [13] was 102%, the “% enzyme activity” value [14] was 97.32% and the “% enzyme activity” value [15] was 97.81%. It also gave a remaining activity at 1 µM [16] of 86.8%.
